Source: EP0565593B1, “REDUCING PESTICIDAL INTERACTIONS IN CROPS” (priority 1990, dated 1992)
Values joined by “and” are separate entries in the source; they are usually repeats but may differ in a detail not shown here. Identical values can stand only once. Like-named read-outs stand apart in the source and are kept apart here.

What was measured:
[1] = tested on: Corn
[2] = tested on: Corn; assay: Greenhouse test Procedure VII: biocide and antidote in furrow, herbicide POE (Examples 39-42, 48-50, 56-58; Tables 38-41, 47-49, 55-57); type: in vivo
Summary of the method: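 Corn seed was planted in greenhouse pots, with COUNTER 15G insecticide plus antidote granules applied in-furrow (e.g. 1.1 + 0.37 mg a.i./cm, or 227 g/305 m with acetone-applied safeners). About five days later, herbicides in water with 0.25% v/v X-77 were track-sprayed post-emergence at 187 L/ha. Plant response was scored eight days afterward, with two to four replicates.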

[3] = tested on: Corn; conditions: for safener activity: ACCENT POE + OP insecticides PPI, Tables 11-14; for activity in reducing corn injury: primisulfuron POE + biocides PPI, Tables 8-10
[4] = Antidote + Biocide No. 1 in furrow, Herbicide No. 1 0.14 Kg/Ha POE, 8 days after POE
[5] = Antidote + Biocide No. 1 in furrow, Herbicide No. 4 0.17 Kg/Ha POE, 8 days after POE
[6] = Antidote + Biocide No. 1 in furrow, Herbicide No. 5 0.07 Kg/Ha POE, 8 days after POE
[7] = Antidote + Biocide No. 1 in furrow, Herbicide No. 6 0.01 Kg/Ha POE
[8] = Antidote + Biocide No. 1 in furrow, Herbicide No. 7 0.56 Kg/Ha POE, 8 days after POE
[9] = Antidote + Biocide No. 1 in furrow, Herbicide No. 9 0.009 Kg/Ha POE
[10] = Antidote + Biocide No. 1 in furrow, Herbicide No. 10 0.002 Kg/Ha POE, 8 days after POE
[11] = Antidote + Biocide No. 1 in furrow, Herbicide No. 15 0.0044 Kg/Ha POE, 8 days after POE
[12] = Antidote + Biocide No. 1 in furrow, Herbicide No. 16 0.01 Kg/Ha POE
[13] = Antidote + Biocide No. 1 in furrow, Herbicide No. 18 0.0044 Kg/Ha POE
[14] = Antidote + Biocide No. 1 in furrow, Herbicide No. 19 0.28 Kg/Ha POE
[15] = Antidote + Biocide No. 1 in furrow, Herbicide No. 21 0.14 Kg/Ha POE
[16] = Antidote + Biocide No. 1 in furrow, Herbicide No. 23 0.0006 Kg/Ha POE
[17] = Antidote 4.48 + Biocide No. 1 8.96 Kg/Ha PPI, Herb. No. 8 0.07, 5 DAP, before herbicide application
[18] = Antidote 4.48 + Biocide No. 1 8.96 Kg/Ha PPI, Herb. No. 8 0.07 POE, 13 DAP
[19] = Antidote 4.48 + Biocide No. 1 8.96 Kg/Ha PPI, Herbicide No. 7 0.28 POE, 13 days after planting
[20] = Herb. […], 5 DAP, before herbicide application
[21] = Table 14: Herbicide No. 7 (ACCENT) 0.84 Kg/Ha POE + Biocide No. 2 8.96 Kg/Ha PPI + antidote 4.48 Kg/Ha PPI, 13 days after planting, 8 days after herbicide
[22] = […], 13 days after planting, 8 days after herbicide
[23] = […], observed 10 days after herbicide application
[24] = XRD-498 + OP insecticides, Examples 24-27

COC(=O)c1c(Cl)nn(C)c1S(=O)(=O)NC(=O)Nc1nc(OC)cc(OC)n1 [Herbicide No. 1, N-[(4,6-dimethoxypyrimidin-2-yl)aminocarbonyl]-3-chloro-4-methoxycarbonyl-5-sulfonamide, reference compound]
% Inhibition Corn ([1]; Herb. […], PPI, 13 days after planting): 70%
% Inhibition Corn ([1]; Herbicide No. 1 0.0175 Kg/Ha PPI alone, Table 19): 5%
% Inhibition Corn ([1]; Herbicide No. 1 0.0175 Kg/Ha PPI alone, Table 20): 0%
% Inhibition Corn ([1]; Herbicide No. 1 0.0175 Kg/Ha PPI alone, Table 21): 0%
% Inhibition Corn ([1]; Herbicide No. 1 0.0175 Kg/Ha PPI alone, Table 22): 0%
corn injury ([1]; MON-12000 0.14 kg/ha with the OP insecticides at 8.96 kg/ha): 45-50%
corn injury ([1]; MON-12000 0.14 kg/ha without insecticide, Examples 20-23): 0-5%
% Inhibition Corn ([1]; Table 53, Herbicide No. 1, rate printed as '-', where applied Biocide No. 7 8.96 kg/Ha and antidote 4.48 Kg/Ha, all PPI, observed 13 days after treatment): 5%
% Inhibition Corn ([1]; Table 54, Herbicide No. 1, rate printed as '-', where applied Biocide No. 6 8.96 kg/Ha and antidote 4.48 Kg/Ha, all PPI, observed 14 days after PPI initiation): 5%
% Inhibition Corn ([1]; in vivo): 50% and 45%

CC1(C)OC(c2ccco2)CN1C(=O)C(Cl)Cl (stereo not shown) [compound 1]
% Inhibition Corn [2, 4]: 15%
% Inhibition Corn [2, 5]: 10%
% Inhibition Corn [2, 6]: 15%
% Inhibition Corn [2, 7]: 15%
% Inhibition Corn [2, 8]: 10%
% Inhibition Corn [2, 9]: 10%
% Inhibition Corn [2, 10]: 15%
% Inhibition Corn [2, 11]: 10%
% Inhibition Corn [2, 12]: 20%
% Inhibition Corn [2, 13]: 15%
% Inhibition Corn [2, 14]: 20%
% Inhibition Corn [2, 15]: 20%
% Inhibition Corn [2, 16]: 20%
% Inhibition Corn ([2]; C (COUNTER) + antidote in furrow, C:A Ratio 20, ACCENT 0.56 Kg/Ha POE): 10%
% Inhibition Corn ([2]; C (COUNTER) + antidote in furrow, C:A Ratio 20, BEACON 0.28 Kg/Ha POE): 5%
% Inhibition Corn ([2]; C (COUNTER) + antidote in furrow, C:A Ratio 40, ACCENT 0.56 Kg/Ha POE): 10%
% Inhibition Corn ([2]; C (COUNTER) + antidote in furrow, C:A Ratio 40, BEACON 0.28 Kg/Ha POE): 5%
% Inhibition Corn ([2]; C (COUNTER) + antidote in furrow, C:A Ratio 80, ACCENT 0.56 Kg/Ha POE): 10%
% Inhibition Corn ([2]; C (COUNTER) + antidote in furrow, C:A Ratio 80, BEACON 0.28 Kg/Ha POE): 10%
% Inhibition Corn ([2]; C (COUNTER) + antidote in furrow, C:A Ratio 160, ACCENT 0.56 Kg/Ha POE): 15%
% Inhibition Corn ([2]; C (COUNTER) + antidote in furrow, C:A Ratio 160, BEACON 0.28 Kg/Ha POE): 15%
% Inhibition Corn ([2]; Herbicide No. 1 0.14 Kg/Ha POE + Biocide No. 1 in furrow, no antidote, 8 days after POE): 35%
% Inhibition Corn ([2]; Herbicide No. 1 0.14 Kg/Ha POE alone, 8 days after POE): 0%
% Corn Inhibition C:A Ratios 5 ([2]; Herbicide No. 8 0.28 Kg/Ha POE + COUNTER 15G 227 g/305 m + antidote in furrow, C:A ratio 5): 3%
% Corn Inhibition C:A Ratios 10 ([2]; Herbicide No. 8 0.28 Kg/Ha POE + COUNTER 15G 227 g/305 m + antidote in furrow, C:A ratio 10): 3%
% Corn Inhibition C:A Ratios 20 ([2]; Herbicide No. 8 0.28 Kg/Ha POE + COUNTER 15G 227 g/305 m + antidote in furrow, C:A ratio 20): 0%
% Corn Inhibition C:A Ratios 40 ([2]; Herbicide No. 8 0.28 Kg/Ha POE + COUNTER 15G 227 g/305 m + antidote in furrow, C:A ratio 40): 0%
% Corn Inhibition C:A Ratios 80 ([2]; Herbicide No. 8 0.28 Kg/Ha POE + COUNTER 15G 227 g/305 m + antidote in furrow, C:A ratio 80): 3%
% Corn Inhibition C:A Ratios 160 ([2]; Herbicide No. 8 0.28 Kg/Ha POE + COUNTER 15G 227 g/305 m + antidote in furrow, C:A ratio 160): 13%
safener activity [3]: most active
% Inhibition 5 DAP Corn [3, 17]: 10%
% Inhibition 13 DAP Corn [3, 18]: 25%
% Inhibition Corn [3, 19]: 20%
% Inhibition 5 DAP Corn [3, 20]: 0%
% Inhibition Corn [3, 21]: 5%
% Inhibition Corn [3, 22]: 5%
% Inhibition Corn ([3]; […], observed 9 days later (Table 29)): 10%
% Inhibition Corn ([3]; […], observed 9 days later (Table 30)): 35%
% Inhibition Corn [3, 23]: 55%
% Inhibition 5 DAP Corn ([3]; in vivo): 30%
% Inhibition 13 DAP Corn ([3]; in vivo): 20%
activity in reducing corn injury [3]: most active
safening activity [1, 24]: Safening activity was observed
% Inhibition Corn ([1]; […], PPI, 13 days after PPI (Table 31)): 25%
reducing corn injury, comparison ([1]; in vivo): superior to No. 28

COC(=O)COC(c1ccccc1)c1ccccc1 [compound 12]
% Inhibition Corn [2, 4]: 0%
% Inhibition Corn [2, 5]: 0%
% Inhibition Corn [2, 6]: 0%
% Inhibition Corn [2, 7]: 0%
% Inhibition Corn [2, 8]: 5%
% Inhibition Corn [2, 9]: 0%
% Inhibition Corn [2, 10]: 5%
% Inhibition Corn [2, 11]: 0%
% Inhibition Corn [2, 12]: 15%
% Inhibition Corn [2, 13]: 10%
% Inhibition Corn [2, 14]: 0%
% Inhibition Corn [2, 15]: 5%
% Inhibition Corn [2, 16]: 5%
safener activity [3]: most active
% Inhibition 5 DAP Corn [3, 17]: 20%
% Inhibition 13 DAP Corn [3, 18]: 15%
% Inhibition Corn [3, 19]: 20%
% Inhibition 5 DAP Corn [3, 20]: 0%
% Inhibition Corn [3, 21]: 0%
% Inhibition Corn [3, 22]: 0%
% Inhibition Corn ([3]; […], observed 8 days later (Table 32)): 0%
% Inhibition Corn ([3]; […], observed 8 days later (Table 33)): 40%
% Inhibition Corn [3, 23]: 60%
% Inhibition 5 DAP Corn ([3]; in vivo): 20%
% Inhibition 13 DAP Corn ([3]; in vivo): 20%
activity in reducing corn injury [3]: most active
safening activity ([1]; MON-12000 + OP insecticides, Examples 20-23): Safening activity was observed
safening activity [1, 24]: Safening activity was observed
% Inhibition Corn ([1]; […], PPI, 14 days after PPI (Table 34)): 25%
reducing corn injury, comparison ([1]; in vivo): superior to No. 28
